Data on three compounds can be found in article PMC8387043, “Host Poly(A) Polymerases PAPD5 and PAPD7 Provide Two Layers of Protection That Ensure the Integrity and Stability of Hepatitis B Virus RNA” (Journal of Virology, 2021).

Like-named read-outs stand apart in the source and are kept apart here.

For experiment [1], the system named is PAPD5. Details: method as in PMID 31801065. The conditions noted are these: read-out: PAPD5 IC50 previously reported; cited from earlier work.
Experiment [2] concerns the target T1, recombinant human PAPD5 (Homo sapiens, UniProt Q8NDF8).
T1 construct: PAPD5 (amino acids 186 to 518; XM_011523275); 10xHis (N); Flag (N); TEV cleavage site (N); host or cells: E. coli BL21(DE3), vector pET-24a(+)
Kind of experiment: PAPD5 ATP depletion assay. The format is biochemical. The conditions noted are these: truncated recombinant human PAPD5, ATP depletion. Here is the method: (§1) Molecular cloning, expression, and purification of the recombinant human PAPD5 and PAPD7 proteins were performed at Xtal BioStructures (MA, USA). PAPD5 (amino acids 186 to 518; GenBank accession no. XM_011523275) and PAPD7 (amino acids 226 to 558; GenBank accession no. NM_006999.6) genes comprising of nucleotidyltransferase and PAP-associated domains were codon optimized, synthesized, and inserted in the expression vector pET-24a(+) for E. coli expression with 10×His-Flag-tobacco etch virus (TEV) tags at the N terminus. The pET-24a(+) constructs were transformed into E. coli-competent cells BL21(DE3). […] Expression of protein was induced for 16 h with 0.2 mM IPTG (isopropyl-β-D-thiogalactopyranoside) at 18°C. […] Roche). Cell suspension was sonicated 8 × 20 s at 27 to 30 W (power level, 3.5 to 4.0) with 40-s breaks between each pulse. Lysate was cleared by centrifugation in a 50-ml conical tube at 20,000 × g for 30 min (Fiberlite F13-14 × 50cy rotor in a Sorvall RC6 centrifuge). Supernatant was incubated with Ni-charged MagBeads (GenScript; catalog no. […] Bound proteins were washed with 50 ml binding buffer and eluted in elution buffer containing a gradient of imidazole ranging from 5 to 500 mM. Peak fractions were pooled and stored in 50% glycerol at -80°C. Reactions were carried out in duplicate in 96-well low-profile, skirted, white plates (catalog no. AB0800WL; […] The reaction mixtures were incubated at room temperature for 3 h, and ATP depletion was monitored by using Kinase-Glo luminescent kinase kit following the manufacturer's instructions (catalog no. V6712; Promega, WI, USA).

The test system of experiment [3] is HBsAg. Nature of the experiment: HBsAg inhibition in adenovirus-HBsAg-transduced HepG2-NTCP WT and KO clones. The conditions noted are these: for EC50: HBsAg, read-out: Adeno infection EC50. The format is cell-based, hepatitis B virus.
The target in experiment [4] is T2, recombinant human PAPD7 (Homo sapiens, UniProt Q5XG87).
T2 construct: PAPD7 (amino acids 226 to 558; NM_006999.6); 10xHis (N); Flag (N); TEV cleavage site (N); host or cells: E. coli BL21(DE3), vector pET-24a(+)
T2 sequence (Q5XG87 226-558): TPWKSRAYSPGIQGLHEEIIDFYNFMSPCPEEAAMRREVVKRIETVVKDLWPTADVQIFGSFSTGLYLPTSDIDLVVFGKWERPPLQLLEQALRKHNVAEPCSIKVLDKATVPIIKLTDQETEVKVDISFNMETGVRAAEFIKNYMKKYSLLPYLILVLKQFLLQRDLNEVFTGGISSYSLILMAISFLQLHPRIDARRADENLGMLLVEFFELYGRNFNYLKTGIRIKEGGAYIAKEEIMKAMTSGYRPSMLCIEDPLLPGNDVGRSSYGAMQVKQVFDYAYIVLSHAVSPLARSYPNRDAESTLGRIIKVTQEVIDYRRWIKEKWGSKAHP
Nature of the experiment: PAPD7 ATP depletion assay. The format is biochemical. Here is the method: as §1

The test system of experiment [5] is HBV PRE. Kind of experiment: HBV PRE cis-element reporter plasmids (HBsAg or Gluc) transfected in Huh-7 cells. As to conditions: Hepatitis B virus.
The test system of experiment [6] is HBV. Kind of experiment: HBsAg inhibition in PLC/PRF/5 cells. As to conditions: Hepatitis B virus. The format is cell-based. The protocol:
AB-452 and RG7834 both belong to the dihydroquinolizinones chemical class. The antiviral activities of AB-452 and its diastereomer ARB-169451 were evaluated using multiple in vitro HBV replication models, including HepG2.2.15 cells (which constitutively express HBV through the integrated viral genome), PLC/PRF/5 cells (a patient-derived hepatocellular carcinoma cell line only expressing HBsAg), and HBV-infected HepG2-NTCP cells or primary human hepatocytes (PHHs) in which viral replication was dependent on cccDNA transcription (Table 1).
HepG2.2.15, HepAD38, and PLC/PRF/5 cells were cultured in Dulbecco’s modified Eagle medium (DMEM)/F12 medium (Corning, NY, USA), supplemented with 10% fetal bovine serum (Gemini, CA, USA), 100 U/ml penicillin, and 100 μg/ml streptomycin. Huh-7 cells (Creative Bioarray, NY, USA) were cultured in RPMI 1640 medium (Basel, Switzerland) containing 10% fetal bovine serum, 100 U/ml penicillin, and 100 μg/ml streptomycin. HepG2-hNTCP-C4 cells were cultured in DMEM medium (Gibco, MA, USA) containing 10% fetal bovine serum and 10 mM HEPES (Gibco).

Experiment [7] has as its system HBV. Nature of the experiment: Antiviral assay in HepG2.2.15 cells (HBsAg/HBeAg CLIA, secreted HBV DNA qPCR). The format is cell-based, hepatitis B virus.
Experiment [8] concerns HBV. Nature of the experiment: HBV replication intermediates and viral proteins in HepG2.2.15 cells (Northern, Western, particle gel, Southern). The format is cell-based, hepatitis B virus. As to conditions: HepG2.2.15, 6 days; ETV, GLS-4, cmpdA 1 μM; AB-452 70 nM. The protocol:
Total cellular RNA was extracted from HepG2.2.15 or HepAD38 cells treated with or without antiviral compounds using TRIzol reagent according to the manufacturer's directions (Thermo Fisher Scientific, Waltham, MA). Northern blotting was performed as described previously ([1]). Briefly, total RNA was separated in a 1.5% agarose gel and transferred onto an Amersham Hybond-XL membrane (product no. GERPN303S; GE Healthcare, IL, USA). Membranes were probed with an [α-^32P]UTP (PerkinElmer, CT, USA)-labeled minus strand-specific full-length HBV riboprobe (3.2 kb) transcribed from plasmid pSP65_HBV(+) DNA. Membranes were exposed to a phosphoimager screen, and the hybridization signals were quantified using Image Studio software (Li-Cor Biosciences, NE, USA).
Total intracellular viral core-associated DNA was extracted as described previously ([1]) and analyzed by Southern blotting hybridization with an [α-^32P]UTP-labeled full-length HBV riboprobe (3.2 kb) that specifically hybridized to minus strand of viral DNA. Membranes were exposed to a phosphoimager screen, and the hybridization signals were quantified using Image Studio software.
HepG2.2.15 or HepAD38 cells cultured in a 12-well plate were lysed with 200 μl Laemmli sample buffer (Bio-Rad, PA, USA) supplemented with 2.5% 2-mercaptoethanol (Sigma-Aldrich, MO, USA). […]

T1 sequence (Q8NDF8 106-438 limits assumed): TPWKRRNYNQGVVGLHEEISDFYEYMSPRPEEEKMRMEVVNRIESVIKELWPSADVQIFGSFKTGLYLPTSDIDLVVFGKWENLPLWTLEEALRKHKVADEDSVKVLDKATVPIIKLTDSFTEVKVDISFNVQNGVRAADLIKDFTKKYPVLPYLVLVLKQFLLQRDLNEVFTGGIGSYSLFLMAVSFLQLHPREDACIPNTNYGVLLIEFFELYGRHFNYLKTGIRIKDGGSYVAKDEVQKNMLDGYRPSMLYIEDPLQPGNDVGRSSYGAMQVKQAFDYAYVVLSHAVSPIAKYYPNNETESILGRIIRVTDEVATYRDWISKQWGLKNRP

By IC50 is commonly meant the concentration at which inhibition is half-maximal. What is called EC50 is the concentration needed to bring the measured effect to its halfway point. For the compound `COCCCOc1cc2c(cc1OC)-c1cc(=O)c(C(=O)O)cn1[C@H](C(C)C)C2` [RG7834, reference compound], the IC50 is 1.3 nM in experiment [1], 0.167 µM in experiment [2] and 1090 nM in experiment [4]. Also, the “Adeno infection FC vs WT” value in experiment [3] (P5_KO (T3-4)) is 10.7; in experiment [3] (P5_KO (T3-15)) it was 7.3; in experiment [3] (P7_KO (T2-8)), 2.0; in experiment [3] (P7_KO (T2-22)), 0.9; in experiment [3] (WT (parent)), 1. For the same compound, the 50% effective concentration (EC50) in experiment [3] (P5_KO (T3-4)) was 126 ± 74.7 nM; in experiment [3] (P5_KO (T3-15)), 85.7 ± 59.8 nM; in experiment [3] (P7_KO (T2-8)), 23.7 ± 15.2 nM; in experiment [3] (P7_KO (T2-22)), 10.8 ± 2.1 nM; in experiment [3] (WT (parent) HepG2-NTCP), 11.8 ± 9.6 nM.

Regarding `COCCCOc1cc2c(nc1OC)-c1cc(=O)c(C(=O)O)cn1[C@@H](C(C)C)C2` [ARB-169451], the IC50 was 27 µM in experiment [2] and above 50000 nM in experiment [4]. Further, the EC50 in experiment [5] (120 h, read-out: EC50, Gluc_dHBx (Gluc activity)) was above 100 nM; in experiment [5] (120 h, read-out: EC50, H133_Gluc (Gluc activity)) it was above 100 nM; in experiment [5] (Huh-7, 120 h, read-out: EC50, Gluc_rcSLα (Gluc activity)), above 100 nM; in experiment [5] (Huh-7, 120 h, read-out: EC50, H133 (HBsAg)), above 100 nM; in experiment [5] (Huh-7, 120 h, read-out: EC50, H133_dLa (HBsAg)), above 100 nM; in experiment [5] (Huh-7, 120 h, read-out: EC50, H133_dSLα (HBsAg)), above 100 nM. Besides, the EC50 in experiment [6] is above 100 nM; in experiment [7] (Hepatitis B virus, HepG2.2.15 cells, read-out: HBsAg EC50) it was 2230 nM. Also, in experiment [7], the “fold weaker toward HBsAg inhibition than AB-452” value is recorded as “more than 1,000 fold”.

Regarding `C=C1[C@H](CO)[C@@H](O)C[C@@H]1n1cnc2c(=O)[nH]c(N)nc21` [ETV, entecavir, reference compound], in experiment [8], the “Effect on HBV replication intermediates and viral proteins” value was “strongly inhibited HBV DNA replication but did not reduce the production of intracellular HBV RNA, core protein levels, or capsid assembly”.
